According to patent US8993568B2, “Morpholinyl derivatives useful as MOGAT-2 inhibitors” (Eli Lilly and Company, priority 2012, dated 2015):

Legend:
human MOGAT-2 = human MOGAT-2 (Homo sapiens (Human), UniProt Q3SYC2); assay: MOGAT-2 Cell Assay (Caco-2 cells stably transfected with human MOGAT-2, HDG substrate, LC-MS); type: cell-based; details: Caco-2 cells expressing human MOGAT-2; value (Std Dev., n)
Procedure: Inhibitory Activity in MOGAT-2 Cell Assay
The inhibitory activity of compounds against human MOGAT-2 in a cell environment is evaluated in this assay. […] The substrate is delivered to cells using as a mixture with DOPC in the form of sonicated vesicles.
Seed the Caco2 cells onto 100 mm dishes to be 80% confluent after 24 hours in complete media (3/1 DMEM: F12+10% FBS+20 mM HEPES+gentamicin). Transfect the cells with hMOGAT-2 plasmid (MOGAT-2-pCDNA3.1-Hygro) using Lipofectamine 2000 (Invitrogen). After a 6 hour exposure to the transfection mixture, wash the cells three times in PBS and then add media. Incubate the cells for an additional 18 hours incubation, trypsinize the cells and serially dilute them into 100 mm dishes. Add complete media+400 μg/ml hygromycin and incubate until clones appear. Isolate and transfer the clones into 24 well dishes and grow to confluence. Prepare the RNAs from these clones using a Qiagen RNAeasy kit. Perform Taqman analysis using an ABI inventoried assay (HS00228262) on a 7900 Sequence Detection System (ABI).
Mix 2-O-hexadecylglycerol (“HDG”, Biosynth Chemistry & Biology, # H-1806, 562.7 μl of 20 mg/ml) and DOPC (14.3 ml of 20 mg/ml) in chloroform in a glass tube; dry first under N2 gas; and then under reduced pressure for additional 30 minutes. Add 20 ml of buffer (150 mM Tris-Cl pH 7.4, 250 mM sucrose, 1 mM EDTA) to the dried HDG/DOPC mixture while sonicating until the solution becomes clear. Plate the Caco2 cells into a poly-D-lysine coated 96-well plate (the “Cell Plate”) at 37° C., 5% CO2 overnight. Remove the growth media and pretreat the cells with the test compound in DMEMF12 (3:1) media (GIBCO 93-0152DK) containing 2% BSA (Sigma) for 30 minutes. Treat the cells with one test compound in 2% BSA DMEMF12 (3:1) media containing 40 μM of oleic acid and 800 μM of 8.9:91.9 (molar ratio) HDG/DOPC for 4 hours. Trypsinize the cells with 50 μl of trypsin solution and add 50 μl of PBS. Immediately freeze the cells on dry ice and store at −20° C. for LC-MS analysis. […]

TAG absorption = assay: Dog Oil Bolus Model (plasma triglyceride after olive oil); type: in vivo, dog (male beagles)
Procedure: Pharmacological Effects in a Dog Oil Bolus Model
Inhibiting MOGAT-2 found in the small intestine may be useful for treating hypertriglyceridemia caused by excessive fat intake. To assess the ability of the exemplified compounds to inhibit TAG absorption, twenty one male beagles (n=7 per treatment group) are enrolled for each study, each dog selected to have a body weight between 9-13 kg. House the dogs in cages with a standard light cycle (12 hours light and 12 hours dark); at room temperature: 72±8° F.; and at 30%-70% relative humidity. Fast the dogs for 16 hours prior to the start of the study, then dose the fasted dogs with vehicle (1% HEC, 0.25%, Tween 80, Antifoam) or one of the test compounds in that vehicle. Bleed the dogs one hour after dosing, (0.5 ml from the jugular vein) for a time 0 sample. Dose the dogs with olive oil (Sigma Catalog#: O-1514, 5 ml/kg) immediately after collection of the time 0 sample. Collect samples into an EDTA tube on ice at 1.5, 2, 3, 5, 7, and 9 hrs post compound/vehicle dosing. Centrifuge the samples at […] for 15 min and analyze (Roche Cat no. 1877771) for plasma total triglyceride using a Roche Hitachi 917. For plasma TAG 18.1—18.1—18.1 measurement, extract the samples and perform LC/MS/MS analysis similarly to that described above in MOGAT-2 Cell Assay using 10 μL of plasma/.
The analyte is the [M+NH4]+ ion of TAG 18:1 18:1 18:1, which has a mass of 902.8 m/z; the internal standard is D5 TAG 16:0 16:0 16:0, which has a mass of 829.8 m/z. Report the ratio of the 603.5 m/z daughter ion of 902.8 m/z (TAG 18:1 18:1 18:1) and the 556.5 m/z daughter ion of 829.8 m/z (D5 TAG 16:0 16:0 16:0 internal standard) changes in TAG 18:1 18:1 18:1 relative amount. Calculate the net plasma TAG AUC from total TAG AUC minus baseline TAG AUC using Graphpad Prism4: (Net AUCTAG=AUCTAG post oil bolus−AUCTAG at 0 hour). The percent inhibition of plasma triglyceride is calculated as follows: the (oil bolus group mean of net TAG AUC−oil bolus group mean of net TAG AUC with compound treatment/oil bolus group mean of net TAG AUC)*100. The final statistic analysis uses Dunnett's method of One way Anova for comparison with the control. All Net TAG AUC values are transformed to ranked averaged AUC for comparison to limit the variability within the studies. The ability of exemplified compounds of the present invention to inhibit MOGAT-2 activity and reduce TAG absorption in vivo can be further evaluated according to this assay.

[1] = 30 mg/kg PO, combined three studies
[2] = 75 mg/kg PO, combined two studies

human MOGAT-2, sequence (Q3SYC2 whole entry): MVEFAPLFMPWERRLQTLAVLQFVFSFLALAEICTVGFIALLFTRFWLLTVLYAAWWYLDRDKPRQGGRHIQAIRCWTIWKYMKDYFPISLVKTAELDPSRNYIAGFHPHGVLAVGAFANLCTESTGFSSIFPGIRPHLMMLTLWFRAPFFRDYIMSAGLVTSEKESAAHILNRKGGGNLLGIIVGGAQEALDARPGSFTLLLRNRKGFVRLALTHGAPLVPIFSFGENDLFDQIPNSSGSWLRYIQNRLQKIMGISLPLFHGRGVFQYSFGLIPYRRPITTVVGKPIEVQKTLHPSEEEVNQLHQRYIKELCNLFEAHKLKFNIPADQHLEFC

CS(=O)(=O)N[C@@H](c1ccc(CN2CCOC(c3ccccc3Cl)C2)cc1)C(F)(F)F (single isomer, unassigned; isomer 2) [Example 5]
IC50 (human MOGAT-2): 16 nM

CS(=O)(=O)N[C@@H](c1ccc(CN2CCOC(c3ccc(F)cc3)C2)cc1)C(F)(F)F (single isomer, unassigned; isomer 1) [Example 14]
IC50 (human MOGAT-2): 40 nM

C[C@@H](NS(C)(=O)=O)c1ccc(CN2CCO[C@@H](c3ccc(F)cc3)C2)cc1.O=C(O)/C=C\C(=O)O [Example 2, N-[(1R)-1-(4-{[(2S)-2-(4-Fluorophenyl)morpholin-4-yl]methyl}phenyl)ethyl]methanesulfonamide maleate]
inhibition of 18.1 TAG (plasma TAG 18:1 18:1 18:1) (TAG absorption; [1]): 45% | inhibition of TAG absorption (net plasma total TAG AUC) (TAG absorption; [1]): 43% | reduction in excursion of postprandial triglycerides (TAG absorption; 30 mg/kg and 75 mg/kg, combined studies, p<0.05): statistically significant (p<0.05) reduction | inhibition of 18.1 TAG (plasma TAG 18:1 18:1 18:1) (TAG absorption; [2]): 63% | inhibition of TAG absorption (net plasma total TAG AUC) (TAG absorption; [2]): 64%

C[C@@H](NS(C)(=O)=O)c1ccc(CN2CCOC(c3cccc(C(F)(F)F)c3)C2)cc1 (single isomer, unassigned; isomer 2) [Example 11]
IC50 (human MOGAT-2): 98 nM
